Measured values published in the supplement of paper PMC10307832.

Experiments:
Test in all cases: relative viability (nuclei count vs DMSO), 5 days (fraction); higher = more cells survive
[1] = compound: COC1=CC=C(C=C1)CN2C=CC3=C2C=C(C=C3)C(=O)NO + COc1cc2c(Oc3ccc(NC(=O)C4(C(=O)Nc5ccc(F)cc5)CC4)cc3F)ccnc2cc1OCCCN1CCOCC1 [Foretinib] (partner 0.25 µM)
Method in brief: (§1)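 For relative viability, nuclei counts in treated wells were divided by those in vehicle wells. Lung cancer cell lines had been pin-tool dosed in 1536-well plates the day after seeding and cultured for 5 days, then fixed and stained in one step (final 0.05% Triton X-100, 1% formaldehyde, 1 ug/ml Hoechst) and imaged at 4×. Doses were one drug alone or a fixed anchor-drug dose plus five library-drug doses (not always all listed) in √10 steps, and values are duplicate-plate medians.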

Veliparib + OSI-027 = compound: C[C@]1(c2nc3c(C(N)=O)cccc3[nH]2)CCCN1 [Veliparib] + COc1cccc2cc(-c3nc([C@H]4CC[C@H](C(=O)O)CC4)n4ncnc(N)c34)[nH]c12 [OSI-027] (partner 0.5 µM)
Method in brief: as §1

Veliparib + Lapatinib = compound: C[C@]1(c2nc3c(C(N)=O)cccc3[nH]2)CCCN1 [Veliparib] + CS(=O)(=O)CCNCc1ccc(-c2ccc3ncnc(Nc4ccc(OCc5cccc(F)c5)c(Cl)c4)c3c2)o1 [Lapatinib] (partner 2 µM)
Method in brief: as §1

Veliparib + Pemetrexed = compound: C[C@]1(c2nc3c(C(N)=O)cccc3[nH]2)CCCN1 [Veliparib] + Nc1nc2[nH]cc(CCc3ccc(C(=O)N[C@@H](CCC(=O)O)C(=O)O)cc3)c2c(=O)[nH]1 [Pemetrexed] (partner 0.2 µM)
Method in brief: as §1

Cell Line | relative viability ([1]; first compound 0.08 µM) | relative viability ([1]; first compound 0.253 µM) | relative viability ([1]; first compound 0.8 µM) | relative viability ([1]; first compound 2.53 µM) | relative viability ([1]; first compound 8 µM) | relative viability (Veliparib + OSI-027; first compound 0.02 µM) | relative viability (Veliparib + OSI-027; first compound 0.06325 µM) | relative viability (Veliparib + OSI-027; first compound 0.2 µM) | relative viability (Veliparib + OSI-027; first compound 0.6325 µM) | relative viability (Veliparib + OSI-027; first compound 2 µM) | relative viability (Veliparib + Lapatinib; first compound 0.02 µM) | relative viability (Veliparib + Lapatinib; first compound 0.06325 µM) | relative viability (Veliparib + Lapatinib; first compound 0.2 µM) | relative viability (Veliparib + Lapatinib; first compound 0.6325 µM) | relative viability (Veliparib + Lapatinib; first compound 2 µM) | relative viability (Veliparib + Pemetrexed; first compound 0.02 µM) | relative viability (Veliparib + Pemetrexed; first compound 0.06325 µM) | relative viability (Veliparib + Pemetrexed; first compound 0.2 µM) | relative viability (Veliparib + Pemetrexed; first compound 0.6325 µM) | relative viability (Veliparib + Pemetrexed; first compound 2 µM)
NCI-H2087 | 0.659 | 1.15 | 1.17 | 1.03 | 0.962 | 0.303 | 0.475 | 0.504 | 0.456 | 0.539 | 0.548 | 1.02 | 0.913 | 0.854 | 1.32 | 0.715 | 0.601 | 0.639 | 0.622 | 0.635
NCI-H2126 | 1.14 | 1.22 | 1.15 | 1.2 | 1.26 | 0.647 | 0.608 | 0.747 | 0.749 | 0.679 | 0.797 | 0.687 | 0.726 | 0.775 | 0.729 | 0.716 | 0.732 | 0.71 | 0.647 | 0.675
NCI-H2170 | 0.978 | 0.961 | 0.994 | 1.03 | 1.02 | 0.771 | 0.748 | 0.741 | 0.683 | 0.617 | 0.259 | 0.245 | 0.268 | 0.299 | 0.285 | 0.256 | 0.244 | 0.253 | 0.237 | 0.273
NCI-H2228 | – | 1 | 0.933 | 0.857 | 0.609 | 0.529 | 0.569 | 0.56 | 0.486 | 0.551 | 0.968 | 0.889 | 1.11 | 0.96 | 1.06 | 0.336 | 0.375 | 0.398 | 0.331 | 0.313
NCI-H2347 | – | 0.527 | 0.991 | 0.775 | 0.575 | 0.416 | 0.377 | 0.473 | 0.206 | 0.347 | 0.962 | 0.917 | 0.897 | 1.01 | 0.944 | 0.434 | 0.456 | 0.425 | 0.471 | 0.445
NCI-H2405 | 1.01 | 1.06 | 1.07 | 1.09 | 1.02 | 0.547 | 0.595 | 0.619 | 0.654 | 0.365 | – | 0.941 | 1.09 | 1.14 | 1.26 | 1.08 | – | 1.11 | 0.978 | 1.04
NCI-H3122 | 0.942 | 1 | 0.913 | 0.993 | 0.947 | 0.829 | 0.923 | 0.935 | 0.96 | 0.991 | 0.931 | 1.05 | 0.995 | 0.994 | 1.07 | 0.194 | 0.203 | 0.19 | 0.211 | 0.2
